Literature values, collected in patent US10711043B2, “Compositions and vaccines comprising vesicles and methods of using the same” (priority 2013, dated 2020).

COc1cc2cc(c1Cl)N(C)C(=O)C[C@H](OC(=O)[C@H](C)N(C)C(C)=O)[C@]1(C)O[C@H]1[C@H](C)[C@@H]1C[C@@](O)(NC(=O)O1)[C@H](OC)/C=C/C=C(\C)C2 [Maytansine, maytansine]
solubility: insoluble in water and most solvents
